# From ChEMBL document CHEMBL1201862, “PubChem BioAssay data set” (2004)
#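 Compound exposure: 48 hours, 5 concentrations, 96-well plates. At the GI50, growth is halved.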 Activity calls are given as the source filed them. Rule as the data show it: active = GI50 up to about 1.1 µM and inactive = higher.
# Experiments:
# Assay in all cases: NCI tumour cell line growth inhibition, 48 h
# [1] = tested on: 786-0
# [2] = tested on: A498
# [3] = tested on: A549
# [4] = tested on: BT-549
# [5] = tested on: CAKI-1
# [6] = tested on: CCRF-CEM
# [7] = tested on: COLO 205
# [8] = tested on: HCT-116
# [9] = tested on: HCT-15
# [10] = tested on: HOP-62
# [11] = tested on: HT-29
# [12] = tested on: Hs-578T
# [13] = tested on: IGROV-1
# [14] = tested on: K562
# [15] = tested on: KM12
# [16] = tested on: M14
# [17] = tested on: MDA-MB-231
# [18] = tested on: MDA-MB-435
# [19] = tested on: MDA-N
# [20] = tested on: MOLT-4
# [21] = tested on: NCI-H226
# [22] = tested on: NCI-H23
# [23] = tested on: NCI-H460
# [24] = tested on: NCI/ADR-RES
# [25] = tested on: OVCAR-4
# [26] = tested on: OVCAR-8
# [27] = tested on: PC-3
# [28] = tested on: RXF 393
# [29] = tested on: SK-MEL-28
# [30] = tested on: SK-MEL-2
# [31] = tested on: SK-MEL-5
# [32] = tested on: SK-OV-3
# [33] = tested on: SNB-19
# [34] = tested on: SNB-75
# [35] = tested on: SW-620
# [36] = tested on: T47D
# [37] = tested on: TK-10
# [38] = tested on: U-251
# [39] = tested on: UACC-257
# [40] = tested on: UACC-62
# [41] = tested on: UO-31
# [42] = tested on: ACHN
# [43] = tested on: DU-145
# [44] = tested on: EKVX
# [45] = tested on: HCC 2998
# [46] = tested on: HL-60
# [47] = tested on: LOX IMVI
# [48] = tested on: MCF7
# [49] = tested on: Malme-3M
# [50] = tested on: NCI-H522
# [51] = tested on: RPMI-8226
# [52] = tested on: SF-268
# [53] = tested on: SF-295
# [54] = tested on: SF-539
# [55] = tested on: SN12C
# [56] = tested on: OVCAR-5
# [57] = tested on: SR
# [58] = tested on: HOP-92
# [59] = tested on: OVCAR-3
structure (smiles),measurement,setting,value
COc1cc([C@@H]2c3cc4c(cc3[C@@H](NCCNCCO)[C@H]3COC(=O)[C@H]23)OCO4)cc(OC)c1O,GI50,[1],0.762 µM (active)
same,GI50,[2],3.85 µM (inactive)
same,GI50,[3],0.406 µM (active)
same,GI50,[4],2.14 µM (inactive)
same,GI50,[5],2.83 µM (inactive)
same,GI50,[6],0.0861 µM (active)
same,GI50,[7],2.42 µM (inactive)
same,GI50,[8],2 µM (inactive)
same,GI50,[9],34.6 µM
same,GI50,[10],1.2 µM (inactive)
same,GI50,[11],2 µM (inactive)
same,GI50,[12],2.63 µM (inactive)
same,GI50,[13],1.3 µM (inactive)
same,GI50,[14],1.04 µM (active)
same,GI50,[15],3.72 µM (inactive)
same,GI50,[16],3.48 µM (inactive)
same,GI50,[17],3.69 µM (inactive)
same,GI50,[18],9.44 µM (inactive)
same,GI50,[19],3.88 µM (inactive)
same,GI50,[20],0.0267 µM (active)
same,GI50,[21],1.37 µM (inactive)
same,GI50,[22],1.08 µM (active)
same,GI50,[23],0.0951 µM (active)
same,GI50,[24],> 99.5 µM (inactive)
same,GI50,[25],14.4 µM (inactive)
same,GI50,[26],1.81 µM (inactive)
same,GI50,[27],3.78 µM (inactive)
same,GI50,[28],2.02 µM (inactive)
same,GI50,[29],2.67 µM (inactive)
same,GI50,[30],2.78 µM (inactive)
same,GI50,[31],0.659 µM (active)
same,GI50,[32],2.33 µM (inactive)
same,GI50,[33],0.836 µM (active)
same,GI50,[34],1.19 µM (inactive)
same,GI50,[35],2.84 µM (inactive)
same,GI50,[36],0.841 µM (active)
same,GI50,[37],7.38 µM (inactive)
same,GI50,[38],0.813 µM (active)
same,GI50,[39],5.02 µM (inactive)
same,GI50,[40],0.601 µM (active)
same,GI50,[41],15.4 µM (inactive)
Cc1nn(C(=O)Cc2ccccc2)c2c1C(c1ccc(/C=C/c3ccccc3)cc1)SC(=N)N2 (configuration not stated),GI50,[1],> 100 µM (inactive)
same,GI50,[2],> 100 µM (inactive)
same,GI50,[3],> 100 µM (inactive)
same,GI50,[42],> 100 µM (inactive)
same,GI50,[4],> 100 µM (inactive)
same,GI50,[5],> 100 µM (inactive)
same,GI50,[6],> 100 µM (inactive)
same,GI50,[7],> 100 µM (inactive)
same,GI50,[43],> 100 µM (inactive)
same,GI50,[44],> 100 µM (inactive)
same,GI50,[45],> 100 µM (inactive)
same,GI50,[8],> 100 µM (inactive)
same,GI50,[9],> 100 µM
same,GI50,[46],> 100 µM (inactive)
same,GI50,[10],> 100 µM (inactive)
same,GI50,[11],> 100 µM (inactive)
same,GI50,[12],> 100 µM (inactive)
same,GI50,[13],> 100 µM (inactive)
same,GI50,[14],> 100 µM (inactive)
same,GI50,[15],> 100 µM (inactive)
same,GI50,[47],> 100 µM (inactive)
same,GI50,[16],> 100 µM (inactive)
same,GI50,[48],> 100 µM (inactive)
same,GI50,[17],> 100 µM (inactive)
same,GI50,[18],> 100 µM (inactive)
same,GI50,[19],> 100 µM (inactive)
same,GI50,[20],> 100 µM (inactive)
same,GI50,[49],> 100 µM (inactive)
same,GI50,[21],> 100 µM (inactive)
same,GI50,[22],> 100 µM (inactive)
same,GI50,[23],> 100 µM (inactive)
same,GI50,[50],> 100 µM (inactive)
same,GI50,[26],> 100 µM (inactive)
same,GI50,[27],> 100 µM (inactive)
same,GI50,[51],> 100 µM (inactive)
same,GI50,[52],> 100 µM (inactive)
same,GI50,[53],> 100 µM (inactive)
same,GI50,[54],> 100 µM (inactive)
same,GI50,[29],> 100 µM (inactive)
same,GI50,[31],> 100 µM (inactive)
same,GI50,[32],> 100 µM (inactive)
same,GI50,[55],> 100 µM (inactive)
same,GI50,[33],> 100 µM (inactive)
same,GI50,[34],> 100 µM (inactive)
same,GI50,[35],> 100 µM (inactive)
same,GI50,[36],> 100 µM (inactive)
same,GI50,[37],> 100 µM (inactive)
same,GI50,[39],> 100 µM (inactive)
same,GI50,[40],> 100 µM (inactive)
same,GI50,[41],> 100 µM (inactive)
CC1(C)c2ccccc2C(=O)C12CCC(=O)CC2,GI50,[1],> 100 µM (inactive)
same,GI50,[3],> 100 µM (inactive)
same,GI50,[42],> 100 µM (inactive)
same,GI50,[4],> 100 µM (inactive)
same,GI50,[5],> 100 µM (inactive)
same,GI50,[6],> 100 µM (inactive)
same,GI50,[7],> 100 µM (inactive)
same,GI50,[43],> 100 µM (inactive)
same,GI50,[44],> 100 µM (inactive)
same,GI50,[45],> 100 µM (inactive)
same,GI50,[8],> 100 µM (inactive)
same,GI50,[9],> 100 µM
same,GI50,[46],> 100 µM (inactive)
same,GI50,[10],> 100 µM (inactive)
same,GI50,[11],> 100 µM (inactive)
same,GI50,[12],69.8 µM (inactive)
same,GI50,[13],> 100 µM (inactive)
same,GI50,[14],> 100 µM (inactive)
same,GI50,[15],> 100 µM (inactive)
same,GI50,[47],> 100 µM (inactive)
same,GI50,[16],> 100 µM (inactive)
same,GI50,[48],> 100 µM (inactive)
same,GI50,[17],> 100 µM (inactive)
same,GI50,[19],> 100 µM (inactive)
same,GI50,[20],> 100 µM (inactive)
same,GI50,[49],60.5 µM (inactive)
same,GI50,[21],> 100 µM (inactive)
same,GI50,[22],> 100 µM (inactive)
same,GI50,[23],> 100 µM (inactive)
same,GI50,[50],> 100 µM (inactive)
same,GI50,[24],> 100 µM (inactive)
same,GI50,[25],> 100 µM (inactive)
same,GI50,[56],> 100 µM (inactive)
same,GI50,[26],> 100 µM (inactive)
same,GI50,[27],> 100 µM (inactive)
same,GI50,[28],12.4 µM (inactive)
same,GI50,[52],> 100 µM (inactive)
same,GI50,[53],> 100 µM (inactive)
same,GI50,[54],> 100 µM (inactive)
same,GI50,[29],> 100 µM (inactive)
same,GI50,[30],> 100 µM (inactive)
same,GI50,[31],> 10 µM (inactive)
same,GI50,[32],> 100 µM (inactive)
same,GI50,[55],> 100 µM (inactive)
same,GI50,[33],> 100 µM (inactive)
same,GI50,[34],0.504 µM (active)
same,GI50,[57],> 100 µM (inactive)
same,GI50,[35],> 100 µM (inactive)
same,GI50,[36],> 100 µM (inactive)
same,GI50,[37],> 100 µM (inactive)
same,GI50,[38],> 100 µM (inactive)
same,GI50,[39],> 100 µM (inactive)
same,GI50,[40],> 100 µM (inactive)
same,GI50,[41],33.7 µM (inactive)
Cc1cc(S(=O)(=O)O)ccc1/N=N/c1c(O)ccc2ccccc12,GI50,[1],> 100 µM (inactive)
same,GI50,[3],> 100 µM (inactive)
same,GI50,[42],> 100 µM (inactive)
same,GI50,[4],> 100 µM (inactive)
same,GI50,[5],> 100 µM (inactive)
same,GI50,[6],> 100 µM (inactive)
same,GI50,[7],> 100 µM (inactive)
same,GI50,[43],> 100 µM (inactive)
same,GI50,[44],> 100 µM (inactive)
same,GI50,[8],> 100 µM (inactive)
same,GI50,[9],> 100 µM
same,GI50,[46],> 100 µM (inactive)
same,GI50,[10],> 100 µM (inactive)
same,GI50,[58],> 100 µM (inactive)
same,GI50,[11],82.2 µM (inactive)
same,GI50,[12],> 100 µM (inactive)
same,GI50,[13],> 100 µM (inactive)
same,GI50,[14],> 100 µM (inactive)
same,GI50,[15],> 100 µM (inactive)
same,GI50,[16],> 100 µM (inactive)
same,GI50,[17],> 100 µM (inactive)
same,GI50,[18],> 100 µM (inactive)
same,GI50,[19],> 100 µM (inactive)
same,GI50,[20],> 100 µM (inactive)
same,GI50,[49],> 100 µM (inactive)
same,GI50,[21],> 100 µM (inactive)
same,GI50,[22],> 100 µM (inactive)
same,GI50,[50],> 100 µM (inactive)
same,GI50,[24],> 100 µM (inactive)
same,GI50,[59],> 100 µM (inactive)
same,GI50,[25],> 100 µM (inactive)
same,GI50,[56],> 100 µM (inactive)
same,GI50,[26],> 100 µM (inactive)
same,GI50,[27],> 100 µM (inactive)
same,GI50,[51],> 100 µM (inactive)
same,GI50,[28],> 100 µM (inactive)
same,GI50,[52],> 100 µM (inactive)
same,GI50,[53],> 100 µM (inactive)
same,GI50,[29],> 100 µM (inactive)
same,GI50,[30],> 100 µM (inactive)
same,GI50,[31],> 100 µM (inactive)
same,GI50,[32],> 100 µM (inactive)
same,GI50,[55],> 100 µM (inactive)
same,GI50,[33],> 100 µM (inactive)
same,GI50,[34],> 100 µM (inactive)
same,GI50,[35],> 100 µM (inactive)
same,GI50,[36],> 100 µM (inactive)
same,GI50,[37],> 100 µM (inactive)
same,GI50,[38],> 100 µM (inactive)
same,GI50,[39],> 100 µM (inactive)
same,GI50,[40],> 100 µM (inactive)
same,GI50,[41],> 100 µM (inactive)
